This is an account of results in patent US6552176B2, “Salt forms of 6-n-butylamino-6-deoxy-α-L-sorbofuranose” (G. D. Searle & Co., priority 1990, dated 2003).

Series [1] is described as follows: Autoclaving of N-butylglucamine reaction solution, HPLC comparison before and after. It counts as physicochemical. The note with it: 5% (weight/volume) solution, 20 mM MgSO4, pH 5.0; 121° C., 30 P.S.I., 30 minutes. How it is done:
The reaction solution can also be sterilized by autoclaving, as described below. A 5% (weight/volume) solution of N-butylglucamine containing 20 mM MgSO4, at pH 5.0, was autoclaved in a 500 ml shake flask with a silicon closure in place. The conditions for autoclaving were 121° C., 30 P.S.I., for 30 minutes. The pH was checked afterwards and found to be 5.0 at room temperature. There was no visible change in the color or the clarity of the solution, an indication that no caramelization or precipitation had occurred. […] Controls (not autoclaved) indicated at least 90% conversion at 48 hours, also. Autoclaving can therefore be used as a method for sterilizing the reaction solution.

The conditions of series [2]: cited from earlier work.

On to `CCCCNC[C@H](O)[C@@H](O)[C@H](O)[C@H](O)CO` [N-butylglucamine], for which the “stability of solution to autoclaving (HPLC before vs after)” value in series [1] is reported as “the same”. Consider `CCCCN` [N-n-butylamine], for which, in series [2] (exposure to as little as), the “exposure concentration producing nose and throat irritation” value is listed as 5-10 ppm. For the same molecule, the “hazard description per Material Safety Data Sheets” value in series [2] (supplier MSDS (Fisher Scientific)) is “toxic and a severe eye, skin and mucous membrane irritant”.
